Holding throughout (type): biochemical
For one test, the target named is calpain II from rabbit. Description: Calpain II inhibition, Suc-Leu-Tyr-AMC (Table PKC1). To be noted: 20 mM Hepes, 10 mM CaCl2, 10 mM β-mercaptoethanol, pH 7.2; read-out: Ki CII (Calpain II). Here is the method:
Our discovery of Peptide Keto-Compounds effective as Calpain Inhibitors was made through assay of the Peptide Keto-Compounds as reversible inhibitors. Various concentrations of inhibitors in dimethylsulfoxide (DMSO) were added to the assay mixture, which contained buffer and substrate. The reaction was started by the addition of the enzyme and the hydrolysis rates were followed spectrophotometrically or fluorimetrically. 88 mM KH2 PO4, 12 mM Na2 HPO4, 1.33 mM EDTA, 2.7 mM cysteine, pH 6.0 was used as a buffer for cathepsin B; and 20 mM Hepes, 10 mM CaCl2, 10 mM β-mercaptoethanol, pH 7.2 buffer was utilized for calpain I and calpain II.
All peptide thioester hydrolysis rates were measured with assay mixtures containing 4,4'-dithiodipyridine [e324=19800 M-1 cm-1; Grasetti & Murray, Arch. Biochem. Biophys. 119, pp 41-49 (1967)]. Papain was assayed with Bz-Arg-AMC or Bz-Arg-NA [Kanaoka et al., Chem. Pharm. Bull. 25, 3126-3128 (1977)], and the AMC (7-amino-4-methylcoumarin) release was followed fluorimetrically (excitation at 380 nm, and emission at 460 nm). Cathepsin B was assayed with Z-Arg-Arg-AFC [Barrett and Kirschke, Methods Enzymol. 80, 535-561 (1981)], and the AFC (7-amino-4-trifluoromethylcoumarin) release was followed fluorimetrically (excitation at 400 nm, and emission at 505 nm). Calpain I from human erythrocytes and calpain II from rabbit were assayed using Suc-Leu-Tyr-AMC [Sasaki et al., J. Biol. Chem. 259, 12489-12494 (1984), hereby incorporated by reference], and the AMC (7-amino-4-methylcoumarin) release was followed fluorimetrically (excitation at 380 nm, and emission at 460 nm). Enzymatic hydrolysis rates were measured at various substrate and inhibitor concentrations, and Ki values were determined by Dixon plot.

The target of test [1] is T1, Calpain I from human erythrocytes (Homo sapiens, UniProt P07384).
T1 construct: Calpain I from human erythrocytes and calpain II from rabbit were assayed using Suc-Leu-Tyr-AMC; from tissue; host or cells: human erythrocytes
T1 sequence (P07384 1-714): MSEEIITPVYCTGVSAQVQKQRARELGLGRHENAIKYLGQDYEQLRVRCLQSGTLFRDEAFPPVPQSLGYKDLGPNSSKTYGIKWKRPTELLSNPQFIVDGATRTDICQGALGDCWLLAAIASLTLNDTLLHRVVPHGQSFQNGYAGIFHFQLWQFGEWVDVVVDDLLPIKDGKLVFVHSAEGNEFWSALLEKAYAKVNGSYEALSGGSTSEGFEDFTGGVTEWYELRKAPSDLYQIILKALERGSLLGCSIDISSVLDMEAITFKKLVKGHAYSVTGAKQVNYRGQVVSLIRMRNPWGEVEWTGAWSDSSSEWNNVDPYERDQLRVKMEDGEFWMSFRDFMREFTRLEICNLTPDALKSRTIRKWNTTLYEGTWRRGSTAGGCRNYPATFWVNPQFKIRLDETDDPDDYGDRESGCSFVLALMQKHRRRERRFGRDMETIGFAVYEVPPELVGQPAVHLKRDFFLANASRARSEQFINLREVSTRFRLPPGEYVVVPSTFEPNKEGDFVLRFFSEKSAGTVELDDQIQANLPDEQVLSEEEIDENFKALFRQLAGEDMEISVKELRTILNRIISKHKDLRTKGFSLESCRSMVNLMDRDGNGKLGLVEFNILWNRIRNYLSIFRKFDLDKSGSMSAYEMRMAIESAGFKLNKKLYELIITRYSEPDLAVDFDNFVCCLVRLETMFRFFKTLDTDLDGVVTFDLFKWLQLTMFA
T1 sequence (P04632 1-268 partner): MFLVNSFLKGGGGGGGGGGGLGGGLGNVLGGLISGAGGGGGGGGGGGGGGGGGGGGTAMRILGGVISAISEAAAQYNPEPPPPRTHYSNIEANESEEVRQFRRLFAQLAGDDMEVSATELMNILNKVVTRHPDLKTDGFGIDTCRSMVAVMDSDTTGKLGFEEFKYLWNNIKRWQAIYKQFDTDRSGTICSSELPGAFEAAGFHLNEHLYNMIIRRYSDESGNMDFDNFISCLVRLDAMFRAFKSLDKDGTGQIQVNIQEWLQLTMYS
Description: Calpain I Ki (Table 1B(i)). To be noted: Suc-Leu-Tyr-amidomethylcoumarin, HEPES pH 7.2. The procedure:
The Peptide Keto-Compounds are reversible inhibitors of Calpains and other thiol proteases. […] Cathepsin B from bovine spleen was assayed using Z-Lys-4-nitrophenylphosphate as substrate.
The Ki value for the inhibition of Calpains and cathepsin B by several Peptide Keto-Compounds are shown in μM (micromolar). The values for leupeptin, which is commercially available from Calbiochem of La Jolla, Calif., are shown for comparison.

The target in another test is T2, Papain (Carica papaya, UniProt P00784).
T2 sequence (P00784 134-345): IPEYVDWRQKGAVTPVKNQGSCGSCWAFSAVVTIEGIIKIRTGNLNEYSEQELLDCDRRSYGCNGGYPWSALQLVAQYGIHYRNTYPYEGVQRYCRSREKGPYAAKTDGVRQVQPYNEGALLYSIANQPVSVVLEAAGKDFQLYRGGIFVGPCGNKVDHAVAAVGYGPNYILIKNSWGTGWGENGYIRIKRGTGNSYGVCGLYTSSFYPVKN
Description: Papain KI (Table 1B(ii)). The source says: We tested the ability of an additional group of Peptide Keto-Compounds to inhibit several proteases in order to evaluate their specificity for Calpain.

The structures appear in SMILES notation.

The term Ki denotes a dissociation constant, usually derived from enzyme kinetics or from competition with a known ligand.

Take `CCOC(=O)C(=O)C(CC)NC(=O)[C@H](C)NC(=O)[C@H](C)NC(=O)OCc1ccccc1` (mixture of isomers) [Z-Ala-Ala-DL-Abu-COOEt, Z-Ala-Ala-DL-Abu-CO2 Et]: the Ki on calpain II from rabbit came to 200 µM; in test [1], 50 µM.

As to `CCOC(=O)C(=O)[C@H](CC)NC(=O)[C@H](CC(C)C)NC(=O)OCc1ccccc1` (racemic) [Z-Leu-Abu-COOEt, Z-Leu-DL-Abu-COOEt], the values for the Ki (at calpain II from rabbit; on Papain; in test [1]) were 0.4 µM, 220 µM and 0.04 µM, respectively.

In the case of `CCCC(NC(=O)[C@H](CC(C)C)NC(=O)OCc1ccccc1)C(=O)C(=O)OCC` (mixture of isomers) [Z-Leu-Nva-COOEt, Z-Leu-DL-Nva-COOEt], the values for the Ki at calpain II from rabbit and on Papain were 1.2 µM and 150 µM, respectively.

The compound `CC(=O)N[C@@H](CC(C)C)C(=O)N[C@@H](CC(C)C)C(=O)N[C@H](C=O)CCCNC(=N)N` [Leupeptin, Ac-Leu-Leu-Arg-H, reference compound] came in with a Ki in test [1] of 0.32 µM.

`CCCCC(NC(=O)C(CC(C)C)NC(=O)OCc1ccccc1)C(=O)C(=O)OCC` (stereo not drawn) [Z-Leu-Nle-COOEt, Z-Leu-NLeu-CO2 Et]: the results for the Ki at calpain II from rabbit and at Papain were 0.18 µM and 190 µM, respectively.

Consider `CCOC(=O)C(=O)C(Cc1ccccc1)NC(=O)C(CC(C)C)NC(=O)OCc1ccccc1` (stereo not drawn) [Z-Leu-Phe-COOEt], for which the Ki amounted to 0.4 µM at calpain II from rabbit and 75 µM at Papain.

These data come from US5444042A, “Method of treatment of neurodegeneration with calpain inhibitors” (Cortex Pharmaceuticals, priority 1994, dated 1995).
